This is an account of results in US10280159B2 (AbbVie Deutschland GmbH & Co. KG, priority 2015, dated 2019).

Structures are written as SMILES.

What all share (type): cell-based
For one assay, the target named is T1, human S1PR5 (Homo sapiens, UniProt Q9H228).
T1 construct: host or cells: CHO-K1
The assay is described as follows: Intracellular Ca2+ release (FLIPR) agonist potency, S1P5. The following applies: recombinant CHO-K1 cells expressing human S1PR5, aequorin, Gq/i5; Calcium 5 FLIPR; read-out: S1P5 EC50 range. The gist of the method:
(§1)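 CHO-K1 cells expressing the human receptor, aequorin and Gq/i5 were used; Ca²⁺ release read on FLIPR. EC50 derived from nonlinear fit of fluorescence data normalized to the phospho-fingolimod reference curve.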

The target in the next assay is T2, human S1PR1 (Homo sapiens, UniProt P21453).
T2 construct: host or cells: CHO-K1
T2 sequence (P21453 whole entry): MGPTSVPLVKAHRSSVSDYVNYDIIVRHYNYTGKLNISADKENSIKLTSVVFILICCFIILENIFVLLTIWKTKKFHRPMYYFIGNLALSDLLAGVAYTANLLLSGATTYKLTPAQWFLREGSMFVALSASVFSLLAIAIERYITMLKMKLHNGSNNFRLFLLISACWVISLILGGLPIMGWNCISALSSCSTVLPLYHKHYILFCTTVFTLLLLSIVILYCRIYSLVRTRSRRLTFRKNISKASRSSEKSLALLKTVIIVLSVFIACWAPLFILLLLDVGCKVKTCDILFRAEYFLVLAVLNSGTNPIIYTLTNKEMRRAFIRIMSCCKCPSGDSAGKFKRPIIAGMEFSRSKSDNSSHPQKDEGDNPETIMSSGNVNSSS
The assay is described as follows: Intracellular Ca2+ release (FLIPR) agonist potency, S1P1. The settings on record: recombinant CHO-K1 cells expressing human S1PR1, aequorin, Gq/i5; Calcium 5 FLIPR; read-out: S1P1 EC50. The gist of the method:
as §1

The target of a further assay is T3, human S1PR4 (Homo sapiens, UniProt O95977).
T3 construct: host or cells: CHO-K1
T3 sequence (O95977 1-384): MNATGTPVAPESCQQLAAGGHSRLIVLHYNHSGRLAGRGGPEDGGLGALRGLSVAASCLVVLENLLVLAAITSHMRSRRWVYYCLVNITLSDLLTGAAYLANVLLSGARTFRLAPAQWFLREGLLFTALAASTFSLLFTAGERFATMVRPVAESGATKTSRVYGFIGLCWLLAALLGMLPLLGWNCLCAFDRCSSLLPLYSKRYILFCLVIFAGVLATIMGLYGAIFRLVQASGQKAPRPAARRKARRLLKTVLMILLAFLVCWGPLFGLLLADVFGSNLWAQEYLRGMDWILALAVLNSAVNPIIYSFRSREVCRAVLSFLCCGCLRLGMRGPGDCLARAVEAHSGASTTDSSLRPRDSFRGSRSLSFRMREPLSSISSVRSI
The assay is described as follows: Intracellular Ca2+ release (FLIPR) agonist potency, S1P4. The settings on record: recombinant CHO-K1 cells expressing human S1PR4, aequorin, Gq/i5; Calcium 5 FLIPR; read-out: S1P4 EC50. Summed up:
as §1

T1 sequence (Q9H228 whole entry): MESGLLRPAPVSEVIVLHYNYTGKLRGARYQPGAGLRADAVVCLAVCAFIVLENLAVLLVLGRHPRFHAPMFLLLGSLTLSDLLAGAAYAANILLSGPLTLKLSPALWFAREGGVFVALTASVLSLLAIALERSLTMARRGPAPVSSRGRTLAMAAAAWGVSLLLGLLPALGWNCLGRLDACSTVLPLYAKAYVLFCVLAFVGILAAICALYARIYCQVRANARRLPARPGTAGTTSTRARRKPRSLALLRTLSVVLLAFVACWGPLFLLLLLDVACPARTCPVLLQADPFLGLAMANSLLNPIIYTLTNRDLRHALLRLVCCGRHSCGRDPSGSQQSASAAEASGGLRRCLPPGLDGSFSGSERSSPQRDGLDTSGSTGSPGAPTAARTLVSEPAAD

By EC50 is commonly meant the concentration that produces a half-maximal response. Regarding `CCCc1ccc(COc2ccc3c(c2)OCC(N2CC(C(=O)O)C2)C3)c(OC)c1` (stereo not drawn) [Compound 148, 1-(7-((2-methoxy-4-propylbenzyl)oxy)chroman-3-yl)azetidine-3-carboxylic acid], the EC50 at human S1PR5 is 1000 to 10000 nM; on human S1PR1, greater than 1000 nM; at human S1PR4, greater than 1000 nM.

Take `Cc1ccc(F)c(COc2ccc3c(c2)CCC(OCC(=O)O)C3)c1F` (stereo not drawn) [Compound 149, 2-[6-[(2,6-difluoro-3-methyl-phenyl)methoxy]tetralin-2-yl]oxyacetic acid]: the EC50 is 1000 to 10000 nM on human S1PR5, greater than 1000 nM at human S1PR1 and greater than 1000 nM on human S1PR4.

On to `Cc1ccc(Cl)c(COc2ccc3c(c2)CCC(OCC(=O)O)C3)c1F` (stereo not drawn) [Compound 150, 2-[6-[(6-chloro-2-fluoro-3-methyl-phenyl)methoxy]tetralin-2-yl]oxyacetic acid], for which the EC50 at human S1PR5 is 1000 to 10000 nM; at human S1PR1, greater than 1000 nM; on human S1PR4, greater than 1000 nM.

Regarding `O=C(O)COC1CCc2cc(OCc3cc(C(F)(F)F)ccc3Cl)ccc2C1` (stereo not drawn) [Compound 151, 2-[6-[[2-chloro-5-(trifluoromethyl)phenyl]methoxy]tetralin-2-yl]oxyacetic acid], the EC50 was 1000 to 10000 nM at human S1PR5, greater than 1000 nM at human S1PR1 and greater than 1000 nM on human S1PR4.

With `COc1cccc(COc2ccc3c(c2)CCC(OCC(=O)O)C3)c1` (stereo not drawn) [Compound 154, 2-[6-[(3-methoxyphenyl)methoxy]tetralin-2-yl]oxyacetic acid], the EC50 was 1000 to 10000 nM on human S1PR5, greater than 1000 nM at human S1PR1 and greater than 1000 nM at human S1PR4.

Take `Cc1ccc(F)cc1COc1ccc2c(c1)CCC(OCC(=O)O)C2` (stereo not drawn) [Compound 155, 2-[6-[(5-fluoro-2-methyl-phenyl)methoxy]tetralin-2-yl]oxyacetic acid]: the EC50 at human S1PR5 was 1000 to 10000 nM; on human S1PR1, greater than 1000 nM; at human S1PR4 it was greater than 1000 nM.

As to `Cc1cc(C)cc(COc2ccc3c(c2)CCC(OCC(=O)O)C3)c1` (stereo not drawn) [Compound 156, 2-[6-[(3,5-dimethylphenyl)methoxy]tetralin-2-yl]oxyacetic acid], the concentration giving a half-maximal response (EC50) at human S1PR5 is 1000 to 10000 nM; at human S1PR1, greater than 1000 nM; on human S1PR4 it was greater than 1000 nM.

Take `COc1cccc(F)c1COc1ccc2c(c1)CCC(OCC(=O)O)C2` (stereo not drawn) [Compound 157, 2-[6-[(2-fluoro-6-methoxy-phenyl)methoxy]tetralin-2-yl]oxyacetic acid]: the EC50 on human S1PR5 was 1000 to 10000 nM; on human S1PR1 it was greater than 1000 nM; at human S1PR4, greater than 1000 nM.

`O=C(O)COC1CCc2cc(OCc3c(F)cccc3C(F)(F)F)ccc2C1` (stereo not drawn) [Compound 158, 2-[6-[[2-fluoro-6-(trifluoromethyl)phenyl]methoxy]tetralin-2-yl]oxyacetic acid]: the EC50 at human S1PR5 was 1000 to 10000 nM; at human S1PR1, greater than 1000 nM; at human S1PR4, greater than 1000 nM.

For the compound `O=C(O)COC1CCc2cc(OCc3c(F)cccc3F)ccc2C1` (stereo not drawn) [Compound 159, 2-[6-[(2,6-difluorophenyl)methoxy]tetralin-2-yl]oxyacetic acid], the concentration for a half-maximal effect (EC50) at human S1PR5 was 1000 to 10000 nM; on human S1PR1 it was greater than 1000 nM; at human S1PR4, greater than 1000 nM.

For the compound `Cc1ccc(F)c(COc2ccc3c(c2)CCC(OCC(=O)O)C3)c1` (stereo not drawn) [Compound 160, 2-[6-[(2-fluoro-5-methyl-phenyl)methoxy]tetralin-2-yl]oxyacetic acid], the half-maximal effective concentration (EC50) is 100 to 1000 nM on human S1PR5, greater than 1000 nM at human S1PR1 and greater than 1000 nM on human S1PR4.

Consider `O=C(O)COC1CCc2cc(OCc3ccc(Cl)cc3Cl)ccc2C1` (stereo not drawn) [Compound 162, 2-[6-[(2,4-dichlorophenyl)methoxy]tetralin-2-yl]oxyacetic acid], for which the concentration giving a half-maximal response (EC50) at human S1PR5 was 1000 to 10000 nM; on human S1PR1, greater than 1000 nM; at human S1PR4, greater than 1000 nM.

Turning to `O=C(O)COC1CCc2cc(OCc3cc(F)ccc3F)ccc2C1` (stereo not drawn) [Compound 163, 2-[6-[(2,5-difluorophenyl)methoxy]tetralin-2-yl]oxyacetic acid], the EC50 was 100 to 1000 nM on human S1PR5, greater than 1000 nM on human S1PR1 and greater than 1000 nM at human S1PR4.

Take `O=C(O)COC1CCc2cc(OCc3cc(Cl)ccc3Cl)ccc2C1` (stereo not drawn) [Compound 164, 2-[6-[(2,5-dichlorophenyl)methoxy]tetralin-2-yl]oxyacetic acid]: the EC50 on human S1PR5 is 1000 to 10000 nM; on human S1PR1, greater than 1000 nM; on human S1PR4, greater than 1000 nM.

As for `COc1ccc(COc2ccc3c(c2)CCC(OCC(=O)O)C3)cc1` (stereo not drawn) [Compound 165, 2-[6-[(4-methoxyphenyl)methoxy]tetralin-2-yl]oxyacetic acid], the EC50 at human S1PR5 is 1000 to 10000 nM; on human S1PR1 it was greater than 1000 nM; on human S1PR4 it was greater than 1000 nM.

Consider `COc1ccc(F)cc1COc1ccc2c(c1)CCC(OCC(=O)O)C2` (stereo not drawn) [Compound 166, 2-[6-[(5-fluoro-2-methoxy-phenyl)methoxy]tetralin-2-yl]oxyacetic acid], for which the EC50 is 100 to 1000 nM on human S1PR5, greater than 1000 nM on human S1PR1 and greater than 1000 nM at human S1PR4.

Consider `O=C(O)COC1CCc2cc(OCc3c(F)cccc3Cl)ccc2C1` (stereo not drawn) [Compound 169, 2-[6-[(2-chloro-6-fluoro-phenyl)methoxy]tetralin-2-yl]oxyacetic acid], for which the EC50 is 100 to 1000 nM on human S1PR5, greater than 1000 nM at human S1PR1 and greater than 1000 nM on human S1PR4.

`COc1ccccc1COc1ccc2c(c1)CCC(OCC(=O)O)C2` (stereo not drawn) [Compound 170, 2-[6-[(2-methoxyphenyl)methoxy]tetralin-2-yl]oxyacetic acid]: the EC50 on human S1PR5 is 1000 to 10000 nM; on human S1PR1, greater than 1000 nM; on human S1PR4, greater than 1000 nM.

With `O=C(O)COC1CCc2cc(OCc3cc(F)ccc3Cl)ccc2C1` (stereo not drawn) [Compound 171, 2-[6-[(2-chloro-5-fluoro-phenyl)methoxy]tetralin-2-yl]oxyacetic acid], the EC50 at human S1PR5 is 1000 to 10000 nM; on human S1PR1, greater than 1000 nM; at human S1PR4 it was greater than 1000 nM.

`O=C(O)COC1CCc2cc(OCc3cc(C(F)(F)F)ccc3F)ccc2C1` (stereo not drawn) [Compound 172, 2-[6-[[2-fluoro-5-(trifluoromethyl)phenyl]methoxy]tetralin-2-yl]oxyacetic acid]: the values for the concentration giving a half-maximal response (EC50) on human S1PR5, on human S1PR1 and on human S1PR4 were 1000 to 10000 nM, greater than 1000 nM and greater than 1000 nM, respectively.

Turning to `O=C(O)COC1CCc2cc(OCc3cc(Cl)ccc3F)ccc2C1` (stereo not drawn) [Compound 174, 2-[6-[(5-chloro-2-fluoro-phenyl)methoxy]tetralin-2-yl]oxyacetic acid], the EC50 is 1000 to 10000 nM at human S1PR5, greater than 1000 nM at human S1PR1 and greater than 1000 nM on human S1PR4.

Regarding `COc1ccc(Cl)cc1COc1ccc2c(c1)CCC(OCC(=O)O)C2` (stereo not drawn) [Compound 176, 2-[6-[(5-chloro-2-methoxy-phenyl)methoxy]tetralin-2-yl]oxyacetic acid], the concentration giving a half-maximal response (EC50) on human S1PR5 was 1000 to 10000 nM; on human S1PR1, greater than 1000 nM; at human S1PR4, greater than 1000 nM.

With `Cc1ccccc1COc1ccc2c(c1)CCC(OCCC(=O)O)C2` (stereo not drawn) [Compound 179, 3-[6-(o-tolylmethoxy)tetralin-2-yl]oxypropanoic acid], the figures for the EC50 on human S1PR5, at human S1PR1 and at human S1PR4 were 1000 to 10000 nM, greater than 1000 nM and greater than 1000 nM, respectively.

In the case of `O=C(O)CCOC1CCc2cc(OCc3cccc(F)c3)ccc2C1` (stereo not drawn) [Compound 180, 3-[6-[(3-fluorophenyl)methoxy]tetralin-2-yl]oxypropanoic acid], the 50% effective concentration (EC50) on human S1PR5 is 1000 to 10000 nM; at human S1PR1, greater than 1000 nM; at human S1PR4 it was greater than 1000 nM.

`O=C(O)CCOC1CCc2cc(OCc3ccc(Cl)c(Cl)c3)ccc2C1` (stereo not drawn) [Compound 181, 3-[6-[(3,4-dichlorophenyl)methoxy]tetralin-2-yl]oxypropanoic acid]: the EC50 was 1000 to 10000 nM on human S1PR5, greater than 1000 nM on human S1PR1 and greater than 1000 nM on human S1PR4.

For `CSc1ccc(COc2ccc3c(c2)CCC(OCCC(=O)O)C3)cc1` (stereo not drawn) [Compound 182, 3-[6-[(4-methylsulfanylphenyl)methoxy]tetralin-2-yl]oxypropanoic acid], the EC50 on human S1PR5 was 1000 to 10000 nM; at human S1PR1, greater than 1000 nM; on human S1PR4, greater than 1000 nM.

For `O=C(O)CCOC1CCc2cc(OCc3ccc(C(F)(F)F)cc3)ccc2C1` (stereo not drawn) [Compound 183, 3-[6-[[4-(trifluoromethyl)phenyl]methoxy]tetralin-2-yl]oxypropanoic acid], the EC50 is 1000 to 10000 nM on human S1PR5, greater than 1000 nM at human S1PR1 and greater than 1000 nM on human S1PR4.

With `O=C(O)CCOC1CCc2cc(OCc3cccc(OC(F)(F)F)c3)ccc2C1` (stereo not drawn) [Compound 184, 3-[6-[[3-(trifluoromethoxy)phenyl]methoxy]tetralin-2-yl]oxypropanoic acid], the EC50 on human S1PR5 was 1000 to 10000 nM; at human S1PR1, greater than 1000 nM; on human S1PR4, greater than 1000 nM.

On to `O=C(O)CCOC1CCc2cc(OCc3ccc(OC(F)(F)F)cc3)ccc2C1` (stereo not drawn) [Compound 185, 3-[6-[[4-(trifluoromethoxy)phenyl]methoxy]tetralin-2-yl]oxypropanoic acid], for which the EC50 was 1000 to 10000 nM on human S1PR5, greater than 1000 nM at human S1PR1 and greater than 1000 nM on human S1PR4.

Regarding `O=C(O)CCOC1CCc2cc(OCc3cccc(F)c3F)ccc2C1` (stereo not drawn) [Compound 186, 3-[6-[(2,3-difluorophenyl)methoxy]tetralin-2-yl]oxypropanoic acid], the values for the 50% effective concentration (EC50) at human S1PR5, on human S1PR1 and at human S1PR4 were 1000 to 10000 nM, greater than 1000 nM and greater than 1000 nM, respectively.
